# Calls of active or inactive are those of the source. How the calls were made is not given here.
# System: rodent carcinogenicity bioassays, tumor incidence
# Experiment: CCRIS carcinogenicity studies
# Procedure, shortened: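 Archive of carcinogenicity, mutagenicity, tumor promotion and tumor inhibition results drawn from journals, NCI reports and other sources, expert-reviewed; covers 1985-2011 and is no longer updated.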
compound,measurement,setting,value
COP(=O)(OC)OC,carcinogen call,"Species: MOUSE, Strain/Sex: B6C3F1/FEMALE, Route: GAVAGE, Dose: 0, 250, 500 MG/KG 3/WK FOR 103 WK, Dose: 0, 250, 500 MG/KG 3/WK FOR 103 WK, Tumor Site: Type of Lesion: UTERUS (ENDOMETRIUM): ADENOCARCINOMA (NOS)",active; positive
same,carcinogen call,"Species: MOUSE, Strain/Sex: B6C3F1/MALE, Route: GAVAGE, Dose: 0, 250, 500 MG/KG 3/WK FOR 103 WK, Dose: 0, 250, 500 MG/KG 3/WK FOR 103 WK",inactive; negative
same,carcinogen call,"Species: RAT, Strain/Sex: F344/FEMALE, Route: GAVAGE, Dose: 0, 50, 100 MG/KG 3/WK FOR 104 WK (STUDY DURATION: 105 WK), Dose: 0, 50, 100 MG/KG 3/WK FOR 104 WK (STUDY DURATION: 105 WK)",inactive; negative
same,carcinogen call,"Species: RAT, Strain/Sex: WISTAR/FEMALE, Route: ORAL, Dose: 0, 1, 10, 100 MG/KG/D IN DRINKING WATER FOR DURATION OF STUDY, HIGH DOSE REDUCED TO 50 MG/KG IN WK 54 (STUDY DURATION: 3, Dose: 0, 1, 10, 100 MG/KG/D IN DRINKING WATER FOR DURATION OF STUDY, HIGH DOSE REDUCED TO 50 MG/KG IN WK 54 (STUDY DURATION: 3",inactive; negative
same,carcinogen call,"Species: RAT, Strain/Sex: WISTAR/MALE, Route: ORAL, Dose: 0, 1, 10, 100 MG/KG/D IN DRINKING WATER FOR DURATION OF STUDY, HIGH DOSE REDUCED TO 50 MG/KG IN WK 54 (STUDY DURATION: 3, Dose: 0, 1, 10, 100 MG/KG/D IN DRINKING WATER FOR DURATION OF STUDY, HIGH DOSE REDUCED TO 50 MG/KG IN WK 54 (STUDY DURATION: 3",inactive; negative
O=[N+]([O-])c1ccc2c3ccccc3c3cccc4ccc1c2c43,carcinogen call,"Species: MOUSE, Strain/Sex: B6C3F1/MALE, Route: INTRAPERITONEAL, Dose: 0, 400 NMOL IN 35 µL DMSO ON DAYS 1 (1/7 TOTAL DOSE), 8 (2/7 TOTAL DOSE), AND 15 (4/7 TOTAL DOSE) AFTER BIRTH (STUDY DUR",inactive; negative
CCSC(C)CC1CC(=O)C(/C(CC)=N/OC/C=C/Cl)=C(O)C1 (centres undefined),carcinogen call,"Species: Mouse, Strain/Sex: ???/Female (50/group), Route: Oral, Dose: 0, 20, 200, 1,000, 2,000 ppm increased to 3,000 ppm after 15th wk in diet for 78 wk, Dose: 0, 20, 200, 1,000, 2,000 ppm increased to 3,000 ppm after 15th wk in diet for 78 wk",inactive; negative (study details not given in source; purity 83.3%)
same,carcinogen call,"Species: Mouse, Strain/Sex: ???/Male (50/group), Route: Oral, Dose: 0, 20, 200, 1,000, 2,000 ppm increased to 3,000 ppm after 15th wk in diet for 78 wk, Dose: 0, 20, 200, 1,000, 2,000 ppm increased to 3,000 ppm after 15th wk in diet for 78 wk",inactive; negative (study details not given in source; purity 83.3%)
CC(C)CCC[C@@H](C)[C@H]1CC[C@H]2[C@@H]3C[C@@H]4O[C@@]45C[C@@H](O)CC[C@]5(C)[C@H]3CC[C@]12C,carcinogen call,"Species: RAT, Strain/Sex: STRAIN-CD/FEMALE, Route: INJECTION, Dose: 0, 12.3 UMOL (TOTAL DOSE) 1/6 INJECTED UNDER EACH OF 3 THORACIC AND 3 INGUINAL NIPPLES ONCE (STUDY DURATION: 44 WK)",inactive; negative
CN(C)CCN(Cc1ccsc1)c1ccccn1,carcinogen call,"Species: RAT, Strain/Sex: SPRAGUE-DAWLEY/FEMALE, Route: ORAL, Dose: 0, 500, 1000 PPM IN DRINKING WATER 5D/WK FOR LIFE (STUDY DURATION: 572-731 D), Dose: 0, 500, 1000 PPM IN DRINKING WATER 5D/WK FOR LIFE (STUDY DURATION: 572-731 D)",inactive; negative
same,carcinogen call,"Species: RAT, Strain/Sex: SPRAGUE-DAWLEY/MALE, Route: ORAL, Dose: 0, 500, 1000 PPM IN DRINKING WATER 5D/WK FOR LIFE (STUDY DURATION: 515-576 D), Dose: 0, 500, 1000 PPM IN DRINKING WATER 5D/WK FOR LIFE (STUDY DURATION: 515-576 D)",inactive; negative
NC(=O)OCCO,carcinogen call,"Species: MOUSE, Strain/Sex: STRAIN-A/MALE, Route: INTRAPERITONEAL, Dose: 0, 1.12, 4.6, 11.2 MMOL/KG IN ISOTONIC SALINE ONCE AT 6 WK OF AGE (STUDY DURATION: 16 WK), Dose: 0, 1.12, 4.6, 11.2 MMOL/KG IN ISOTONIC SALINE ONCE AT 6 WK OF AGE (STUDY DURATION: 16 WK), Tumor Site: Type of Lesion: LUNG: ADENOMA",active; positive
O=Nc1ccc2ccccc2c1,carcinogen call,"Species: MOUSE, Strain/Sex: SWISS/MALE, Route: SUBCUTANEOUS, Dose: 100 UG IN GELATIN ON FIRST, THIRD AND FIFTH D OF LIFE, Tumor Site: Type of Lesion: LIVER: HEPATOMA",active; positive
Cn1c(NO)nc2ncc(-c3ccccc3)cc21,carcinogen call,"Species: RAT, Strain/Sex: ACI/SEG/MALE, Route: INTRAPERITONEAL, Dose: 0, 50 UMOL/KG BW 2X/WK FOR 10 WK BEGINNING AT 3 D OF AGE (STUDY DURATION: 68 WK)",inactive; negative
Cc1ccccc1N,carcinogen call,"Species: MOUSE, Strain/Sex: B6C3F1/FEMALE, Route: ORAL, Dose: 0, 1000, 3000 PPM IN DIET FOR 103 WK, Dose: 0, 1000, 3000 PPM IN DIET FOR 103 WK, Tumor Site: Type of Lesion: LIVER: HEPATOCELLULAR CARCINOMA OR HEPATOCELLULAR ADENOMA",active; positive
same,carcinogen call,"Species: MOUSE, Strain/Sex: B6C3F1/MALE, Route: ORAL, Dose: 0, 1000, 3000 PPM IN DIET FOR 102-103 WK, Dose: 0, 1000, 3000 PPM IN DIET FOR 102-103 WK, Tumor Site: Type of Lesion: BLOOD VESSELS: HEMANGIOMA OR HEMANGIOSARCOMA",active; positive
same,carcinogen call,"Species: MOUSE, Strain/Sex: CD-1/MALE,FEMALE, Route: ORAL, Dose: 0, 16000, 32000 MG/KG FOR 3 MO, THEN 0, 8000, 16000 MG/KG FOR 15 MO, Dose: 0, 16000, 32000 MG/KG FOR 3 MO, THEN 0, 8000, 16000 MG/KG FOR 15 MO, Tumor Site: Type of Lesion: BLOOD VESSELS: HEMANGIOMA, HEMANGIOSARCOMA",active; positive
same,carcinogen call,"Species: RAT, Strain/Sex: CD-1/MALE, Route: ORAL, Dose: 0, 8000, 16000 MG/KG FOR 3 MO, THEN 0, 4000, 8000 MG/KG FOR 15 MO, Dose: 0, 8000, 16000 MG/KG FOR 3 MO, THEN 0, 4000, 8000 MG/KG FOR 15 MO, Tumor Site: Type of Lesion: INTEGUMENTARY SYSTEM (SUBCUTANEOUS TISSUE): FIBROMA, FIBROSARCOMA",active; positive
same,carcinogen call,"Species: RAT, Strain/Sex: F344/FEMALE, Route: ORAL, Dose: 0, 3000, 6000, PPM IN DIET FOR 104 WK (STUDY DURATION: 104 WK), Dose: 0, 3000, 6000, PPM IN DIET FOR 104 WK (STUDY DURATION: 104 WK), Tumor Site: Type of Lesion: SPLEEN OR PERITONEUM: SARCOMA",active; positive
same,carcinogen call,"Species: RAT, Strain/Sex: F344/FEMALE, Route: ORAL, Dose: 0, 3000, 6000 PPM IN DIET FOR 104 WK, Dose: 0, 3000, 6000 PPM IN DIET FOR 104 WK, Tumor Site: Type of Lesion: SPLEEN: ANGIOSARCOMA, SARCOMA (NOS) OR ANGIOSARCOMA OR OSTEOSARCOMA, URINARY BLADDER: TRANSITIONAL CELL CARCINOMA, TRANS",active; positive
same,carcinogen call,"Species: RAT, Strain/Sex: F344/MALE, Route: ORAL, Dose: 0, 3000, 6000 PPM IN DIET FOR 101-104 WK, Dose: 0, 3000, 6000 PPM IN DIET FOR 101-104 WK, Tumor Site: Type of Lesion: INTEGUMENTARY SYSTEM (SUBCUTANEOUS TISSUE): FIBROMA, SPLEEN: FIBROMA, ANGIOSARCOMA, MULTIPLE ORGANS OR TUNICA VAGINALIS:, Tumor Site: Type of Lesion: INTEGUMENTARY SYSTEM (SUBCUTANEOUS TISSUE): FIBROMA, SPLEEN: FIBROMA, ANGIOSARCOMA, MULTIPLE ORGANS OR TUNICA VAGINALIS:",active; positive
same,carcinogen call,"Species: RAT, Strain/Sex: F344/MALE, Route: ORAL, Dose: 0, 3000, 6000 PPM IN DIET FOR 104 WK (STUDY DURATION: 104 WK), Dose: 0, 3000, 6000 PPM IN DIET FOR 104 WK (STUDY DURATION: 104 WK), Tumor Site: Type of Lesion: SPLEEN OR PERITONEUM: SARCOMA",active; positive
same,carcinogen call,"Species: RAT, Strain/Sex: F344/MALE, Route: ORAL, Dose: 4.0 G/KG IN DIET FOR 72 WK (TOTAL DOSE 0.22 MOL/RAT), Tumor Site: Type of Lesion: SPLEEN: FIBROMA, INTEGUMENTARY SYSTEM (SKIN): FIBROMA, MAMMARY GLAND: FIBROADENOMA, ADENOCARCINOMA, PERITONEAL CAVITY: M, Tumor Site: Type of Lesion: SPLEEN: FIBROMA, INTEGUMENTARY SYSTEM (SKIN): FIBROMA, MAMMARY GLAND: FIBROADENOMA, ADENOCARCINOMA, PERITONEAL CAVITY: M",active; positive
O=C([O-])CN(CC(=O)[O-])CC(=O)[O-].[Cu+2],carcinogen call,"Species: RAT, Strain/Sex: WISTAR/MALE, Route: INTRAPERITONEAL, Tumor Site: Type of Lesion: KIDNEY: RENAL CELL CARCINOMA",active; positive

# From PubChem BioAssay AID1259411 (Chemical Carcinogenesis Research Information System (CCRIS), 2018)
